Results as given in US8039430B2 (University of Wollongong, priority 2005, dated 2011).
Where two headings read alike, the source gives them in different places.

Experiments:
E.f820 = assay: Antibacterial screening (MIC) of compounds of Example 2, E.f820; assay type: cell-based, Enterrococci faecium; settings: for MIC: read-out: Antibacterial activity μg/mL, E.f820
Procedure: (§1) • All assays used the Staphylococcus aureus strain ATCC 6538P. • Assays described in Chapter 5 additionally used the vancomycin-resistant enterococci and vancomycin-sensitive enterococci strains Ef243, Ef449, Ef820 and Ef487. Culture Media • Mueller-Hinton Broth Medium (MHB): MHB (Oxoid CM405) was prepared with final concentrations of […] MgCl2 and 2 μg/mL CaCl2. Culture medium was pre-warmed for approximately 2-3 h at 37° C. before use. • Mueller-Hinton Agar Medium (MHA): MMB containing 1.5% Agar (Merck Agar 1.01614). Maintenance of Bacteria • From a thawed cryovial, the bacteria was streaked onto MHA and the plate incubated overnight at 37° C. • From this plate, 10 cryovials were prepared by looping several colonies into 0.5 mL of 20% glycerol solution. The cryovials were immediately stored at −140° C. Preparation of Seed Cultures • A cryovial was removed from −140° C. storage and thawed at room temperature. • An MHA plate was streaked with a loopful of bacterial suspension and incubated overnight at 37° C. to create a parent plate (P1). • A daughter plate (D1) was streaked from the parent plate and incubated overnight at 37° C. […] The second parent plate (P2) was used to generate two additional daughter plates using the procedure outlined above before being discarded. • Cryovials were used twice to prepare parent plates (P1 and P2) before being discarded. […] A vancomycin control set (triplicate) and a compound negative control set (triplicate) were also included on each plate (FIG. 1). • The inoculated culture medium was incubated at 37° C. for 30 min, with shaking at 130 rpm. • Using a multichannel pipette, the contents of the first row were mixed before 50 μL was transferred to the second row. The pipette tips were changed and the process repeated by 50 μL of the mixed broth solutions in the second row being transferred to the third row. This process was repeated until the last row contained either the diluted test compound or a control (vancomycin or compound-negative). […] Antibacterial Testing of Compounds of Example 2 Introduction
(§2) The specific testing procedures and protocols are outlined in the section “Antibacterial Screening Methodology for the Compounds of Example 2”.
(§3) Vancomycin was used as the standard/control.

[1] = system: Staphylococcus aureus strain ATCC 6538P; assay: Antibacterial screening (MIC) of compounds of Example 2, S. aureus, Mueller-Hinton broth; assay type: cell-based; settings: for MIC: Staphylococcus aureus, ATCC6538P, read-out: Antibacterial activity μg/mL, S.a
Procedure: Antibacterial Screening Methodology for Compounds of Example 2
as §1, §2
The antibacterial activity results are measured by minimum inhibitory concentration (MIC), which is the lowest concentration of compound necessary to prevent bacterial growth.

E.f987 = assay: Antibacterial screening (MIC) of compounds of Example 2, E.f987; assay type: cell-based, Enterococcus faecium; settings: for MIC: Enterococcus faecium, read-out: Antibacterial activity μg/mL, E.f987
E.f449 = assay: Antibacterial screening (MIC) of compounds of Example 2, E.f449; assay type: cell-based, Enterococcus faecium; settings: for MIC: Enterococcus faecium, read-out: Antibacterial activity μg/mL, E.f449
Procedure: as §1, §2, §3

E.f243 = assay: Antibacterial screening (MIC) of compounds of Example 2, E.f243; assay type: cell-based, Enterococcus faecium; settings: for MIC: Enterococcus faecium, read-out: Antibacterial activity μg/mL, E.f243
Procedure: as §1, §2, §3

[2] = Example 2 compounds, fully vancomycin-resistant strain E.f820
[3] = Example 2 compounds (linear cationic peptides), S. aureus, vancomycin-susceptible strain
[4] = Example 2 compounds, enterococci strain E.f987
[5] = Example 2 compounds, enterococci strain E.f449
[6] = Example 2 compounds, enterococci strain E.f243

Row | Structure (SMILES) | MIC (E.f820; [2]) [µg/mL] | MIC [1, 3] [µg/mL] | MIC (E.f987; [4]) [µg/mL] | MIC (E.f449; [5]) [µg/mL] | MIC (E.f243; [6]) [µg/mL] | other results
1 | C=CCOC(=O)c1cccc(NC(=O)[C@@H](CCCN)NC(=O)COc2ccc3ccccc3c2-c2c(OCC=C)ccc3ccccc23)c1.Cl [Compound 159, Allyl(3R)-3-(6-(2-[2′-allyloxy-{1,1′}-(S)-binaphthalen-2-yloxy])-3-(3-aminopropyl)-1,4-diaza-2,5-dioxohexyl)benzoate hydrochloride] | – | – | – | – | – | Antibacterial activity μg/mL, E.f820 (E.f820; [2]): 62.5 µg/mL; Antibacterial activity μg/mL, S.a [1, 3]: 62.5 µg/mL; Antibacterial activity μg/mL, E.f987 (E.f987; [4]): >125 µg/mL; Antibacterial activity μg/mL, E.f449 (E.f449; [5]): 125 µg/mL; Antibacterial activity μg/mL, E.f243 (E.f243; [6]): 125 µg/mL
2 | C=CCOc1ccc2ccccc2c1-c1c(OCC(=O)N[C@H](CCCN)C(=O)Nc2cccc(C(=O)OC)c2)ccc2ccccc12.Cl [Compound 155, Methyl(3R)-3-(6-(2-[2′-allyloxy-{1,1′}-(S)-binaphthalen-2-yloxy])-3-(3-aminopropyl)-1,4-diaza-2,5-dioxohexyl)benzoate hydrochloride] | – | – | – | – | – | Antibacterial activity μg/mL, E.f820 (E.f820; [2]): 125 µg/mL; Antibacterial activity μg/mL, S.a [1, 3]: 7.8 µg/mL; Antibacterial activity μg/mL, E.f987 (E.f987; [4]): >125 µg/mL; Antibacterial activity μg/mL, E.f449 (E.f449; [5]): 125 µg/mL; Antibacterial activity μg/mL, E.f243 (E.f243; [6]): >125 µg/mL
3 | C=CC[C@H](NC(=O)[C@@H](CCCNC(=N)N)NC(=O)[C@@H](CCCCN)NC(=O)[C@H](Cc1ccc(-c2c3ccccc3cc3ccccc23)cc1)NC(C)=O)C(=O)OCc1ccccc1.Cl.Cl [Compound 139, Benzyl(2S,5R,8R,11S)-2-allyl-8-(4-aminobutyl)-11-(4-[9-anthracenyl]benzyl)-3,6,9,12-tetraaza-5-(3-guanidinopropyl)-4,7,10,13-tetraoxotetradecanoate] | > 125 | 15.6 | > 125 | > 125 | > 125 | –
4 | C=CC[C@H](NC(=O)[C@@H](CCCNC(=N)N)NC(=O)[C@@H](CCCCN)NC(=O)COc1ccc2ccccc2c1-c1c(OCCC(C)C)ccc2ccccc12)C(=O)OCc1ccccc1.Cl.Cl (atropisomer, axis not shown) [Compound 138] | 15.6 | 3.9 | 31.3 | 15.6 | 31.3 | –
5 | C=CC[C@H](NC(=O)[C@H](CCCCN)NC(=O)[C@H](Cc1ccc(-c2c3ccccc3cc3ccccc23)cc1)NC(C)=O)C(=O)OC.Cl [Compound 118, Methyl(2S,5S,8S)-2-allyl-5-(4-aminobutyl)-8-(4-[9-anthrecenyl]benzyl)-3,6,9-triaza-5-butylamino-4,7,10-trioxoundecanoate hydrochloride] | > 125 | 31.3 | > 125 | > 125 | > 125 | –
6 | C=CCOc1ccc2ccccc2c1-c1c(OCC(=O)N[C@H](CCCN)C(=O)Nc2cccc(C(=O)OCc3ccccc3)c2)ccc2ccccc12.Cl [Compound 157, Benzyl(3R)-3-(6-(2-[2′-allyloxy-{1,1′}-(S)-binaphthalen-2-yloxy])-3-(3-aminopropyl)-1,4-diaza-2,5-dioxohexyl)benzoate hydrochloride] | – | – | – | – | – | Antibacterial activity μg/mL, E.f820 (E.f820; [2]): 125 µg/mL; Antibacterial activity μg/mL, S.a [1, 3]: 15.6 µg/mL; Antibacterial activity μg/mL, E.f987 (E.f987; [4]): >125 µg/mL; Antibacterial activity μg/mL, E.f449 (E.f449; [5]): 125 µg/mL; Antibacterial activity μg/mL, E.f243 (E.f243; [6]): >125 µg/mL
7 | C=CC[C@H](NC(=O)[C@@H](CCCNC(=N)N)NC(=O)[C@@H](CCCCN)NC(=O)[C@H](Cc1ccc(-c2cc3ccccc3c3ccccc23)cc1)NC(C)=O)C(=O)OCc1ccccc1.Cl.Cl [Compound 140, Benzyl(2S,5R,8R,11S)-2-allyl-8-(4-aminobutyl)-3,6,9,12-tetraaza-5-(3-guanidinopropyl)-4,7,10,13-tetraoxo-11-(4-[9-phenanthrenyl]benzyl)tetradecanoate] | – | – | – | – | – | MIC (E.f820): > 125 µg/mL; MIC [1]: 7.8 µg/mL; MIC (E.f987): > 125 µg/mL; MIC (E.f449): > 125 µg/mL; MIC (E.f243): > 125 µg/mL
8 | CCCOc1ccc2ccccc2c1-c1c(OCC(=O)N[C@H](CCCCN)C(=O)N[C@H](CCCNC(=N)N)C(=O)N[C@@H](CCC)C(=O)OCc2ccccc2)ccc2ccccc12.Cl.Cl (atropisomer, axis not shown) [Compound 141, Benzyl(2S,5R,8R)-3,6,9-triaza-8-(4-aminobutyl)-5-(3-guanidinopropyl)-4,7,10-trioxo-2-propyl-11-(2-[2′-3-(propyloxy)-{1,1′}-(S)-binaphthalen-2-yloxy])undecanoate] | 31.2 | 3.9 | 62.5 | 31.3 | 31.3 | –
9 | C=CC[C@H](NC(=O)[C@@H](CCCNC(=N)N)NC(=O)[C@@H](CCCCN)NC(=O)COc1ccc2ccccc2c1-c1c(OCCCc2ccccc2)ccc2ccccc12)C(=O)OCc1ccccc1.Cl.Cl (atropisomer, axis not shown) [Compound 137] | 31.3 | 3.9 | 62.5 | 31.3 | 62.5 | –

Second part, led by results:

Row | MIC (E.f820; [2]) [µg/mL] | MIC [1, 3] [µg/mL] | MIC (E.f987; [4]) [µg/mL] | MIC (E.f449; [5]) [µg/mL] | MIC (E.f243; [6]) [µg/mL] | Structure (SMILES) | other results
10 | 62.5 | 7.8 | 125 | 62.5 | 62.5 | C=CCOC(=O)c1cccc(NC(=O)[C@@H](CCCNC(=N)N)NC(=O)COc2ccc3ccccc3c2-c2c(OCC=C)ccc3ccccc23)c1.Cl (atropisomer, axis not shown) [Compound 160, Allyl(3R)-3-(6-(2-[2′-allyloxy-{1,1′}-(S)-binaphthalen-2-yloxy])-1,4-diaza-3-(3-guanidinopropyl)-2,5-dioxohexyl)benzoate hydrochloride] | –
11 | > 125 | 3.9 | > 125 | > 125 | > 125 | C=CCOc1ccc2ccccc2c1-c1c(OCC(=O)N[C@H](CCCNC(=N)N)C(=O)Nc2cccc(C(=O)NOCc3ccccc3)c2)ccc2ccccc12.Cl (atropisomer, axis not shown) [Compound 162] | –
12 | 31.3 | 7.8 | 62.5 | 62.5 | 62.5 | C=CCOc1ccc2ccccc2c1-c1c(OCC(=O)N[C@H](CCCNC(=N)N)C(=O)Nc2cccc(C(=O)OCc3ccccc3)c2)ccc2ccccc12.Cl (atropisomer, axis not shown) [Compound 158, Benzyl(3R)-3-(6-(2-[2′-allyloxy-{1,1′}-(S)-binaphthalen-2-yloxy])-1,4-diaza-3-(3-guanidylpropyl)-2,5-dioxohexyl)benzoate hydrochloride] | –
13 | > 125 | 7.8 | > 125 | > 125 | > 125 | CCCOc1ccc2ccccc2c1-c1c(OCC(=O)N[C@H](CCCNC(=N)N)C(=O)Nc2cccc(C(=O)NO)c2)ccc2ccccc12.Cl (atropisomer, axis not shown) [Compound 164] | –
14 | 125 | 7.8 | > 125 | 125 | 125 | C=CCOc1ccc(C[C@H](NC(=O)[C@@H](CCCNC(=N)N)NC(=O)COc2ccc3ccccc3c2-c2c(O)ccc3ccccc23)C(=O)OC)cc1.Cl (atropisomer, axis not shown) [Compound 121, Methyl(2S,5R)-2-allyloxybenzyl-3,6-diaza-8-(2-[2′-hydroxy-{1,1′}-(S)-binaphthalen-2-yloxy])-5-(3-[guanidino]propyl)-4,7-dioxooctanoate] | –
15 | 62.5 | 7.8 | 125 | 62.5 | 125 | C=CC[C@H](NC(=O)[C@@H](CCCNC(=N)N)NC(=O)[C@@H](CCCCN)NC(=O)COc1ccc2ccccc2c1-c1c(OC)ccc2ccccc12)C(=O)OCc1ccccc1.Cl.Cl (atropisomer, axis not shown) [Compound 135] | –
